Source: publication PMC12111156, “Nitazoxanide Analogs: Synthesis, In Vitro Giardicidal Activity, and Effects on Giardia lamblia Metabolic Gene Expression” (International Journal of Molecular Sciences, 2025)

What was measured:
[1] = test system: G. lamblia strain ATCC 30957; experiment: Viability of Giardia lamblia trophozoite culture (trypan blue count); format: cell-based
Method: Viability analysis was performed on G. lamblia strain ATCC 30957 grown in TYI-S-33 medium supplemented with 10% fetal bovine serum (FBS) and an antibiotic. Pre-culture was performed in 16 × 150 mm borosilicate tubes with a medium inoculated with 2 × 10^5 trophozoites and incubated at 37 °C for 48 h. For the recovery of the trophozoites, the vial was incubated in ice for 8 min and centrifuged for 6 min at 2000 rpm. The concentrated trophozoites were suspended in 1 mL of phosphate-buffered saline (PBS), and the number of trophozoites was counted by placing a 1:1 volume ratio of cell culture and trypan blue dye (4 g/L); then, a homogeneous drop of the mixture was taken and placed in the Neubauer chamber, and the total cells were counted.
The curves were plotted for concentrations of 0–50 µM of each compound. The assay was performed by placing 1.5 × 10^5 cells in 1.5 mL microcentrifuge tubes with a supplemented medium and different concentrations of each compound (0–50 µM). The negative control was performed under the same conditions without a compound, and the drugs NTZ and MTZ were used as positive controls. The samples were incubated for 48 h at 37 °C. At the end of the incubation, the cell viability count was performed using the trypan blue technique. The viability calculation was performed following the formula nv/(nv + nm), where nv represents the live cells and nm represents the dead cells; the viability value obtained was expressed as a percentage. The IC50 value of each compound was determined using the IC50 Calculator software (https://www.aatbio.com/tools/ic50-calculator).

[2] = test system: G6PD::6PGL enzyme of G. lamblia; conditions: cited from earlier work
HT-29 cells = experiment: Cytotoxicity, XTT viability assay, HT-29
Method: (§1) The cytotoxicity assay was performed to evaluate the effect of the selected compounds on human cells. Colon cells were used because they are cell lines like those present in the microenvironment where G. lamblia colonizes, which is the small intestine of the host. The assay was performed using the human cell lines Caco-2 (ATCC HTB-37) and HT-29 (ATCC […]). Cell viability was determined using the Cell Proliferation Kit II (XTT, St. Louis, MO, EE. UU.). A cell suspension of 2 × 10^3 cells/mL was prepared in Dulbecco’s modified Eagle’s medium (DMEM) supplemented with 10% inactivated fetal bovine serum and an antibiotic (1% penicillin/streptomycin, 5000 U/mL, in a volume of 100 µL). The suspension was added to a 96-well plate. The plates were incubated for 24 h at 37 °C in a 5% CO2 atmosphere. […] The cells were incubated for 48 h at 37 °C in a 5% CO2 atmosphere. Cell viability was determined using the following steps. The medium in each well was replaced with 100 µL of fresh medium, and 50 µL of XTT labeling mix was added per well. The reaction was incubated for four hours at 37 °C and 5% CO2. After incubation, the absorbance of the samples on the plate was measured at 450 nm. Each compound was assayed in triplicate in three independent experiments. CC50 values (μM) were determined using the nonlinear regression function of GraphPad Prism version 8 for Windows.

[3] = Cytotoxicity, XTT viability assay, HT-29; conditions: human, HT-29 cells, CC50 HT-29, 48 h, XTT
Method: as §1

[4] = Cytotoxicity, XTT viability assay, Caco-2; conditions: human
Method: as §1

Caco-2 cells = experiment: Cytotoxicity, XTT viability assay, Caco-2; conditions: read-out: CC50 Caco-2; 48 h, XTT
Method: as §1

Caco-2 and HT-29 cells = experiment: Cytotoxicity, XTT viability assay, stated for both cell lines; format: cell-based, human; conditions: 125 µM, 48 h
Method: The suspension was added to a 96-well plate. […] Cell viability was determined using the following steps.

[5] = test system: G. lamblia strain resistant to nitazoxanide; experiment: Giardicidal activity in nitazoxanide-resistant strain (trypan blue count); format: cell-based; conditions: Giardia duodenalis, 48 h, read-out: IC50 G. lamblia (NTZ Resistant)
Method: A pre-culture at confluence was used as a starting point, and a concentration–response curve was plotted using an initial compound concentration of 25 μM in a final volume of 1.5 mL of TYI-S-33 medium, followed by serial dilutions of the compound. Each treatment was inoculated with 1.5 × 10^5 trophozoites and incubated for 48 h at 37 °C. At the end of the incubation, the number of trophozoites was determined using the trypan blue assay and by counting in a Neubauer chamber. The viability percentage at each compound concentration was calculated using the negative control as a reference.

[6] = test system: Giardia lamblia trophozoites (strain ATCC 30957) gene expression; experiment: Gene expression in trophozoites by RT-qPCR; format: cell-based; conditions: IC50 of each compound, 48 h
Method: To determine the alterations in the parasite’s metabolism and cellular processes induced by the compounds, the expression levels of various genes encoding metabolic, structural, and oxidative stress response proteins were evaluated. G. lamblia strain ATCC 30957 was grown by following previously established culture parameters.
The culture tube was incubated on ice for 15 min and then centrifuged at 2000 rpm for 6 min to concentrate the cell pellet. Cell counting was performed using the trypan blue method. A 500 µL volume of Trizol ® was added, and it was gently homogenized; then, 60 µL of chloroform was added, and it was homogenized for 10 s with a vortex and incubated on ice for 3 min. Afterward, it was centrifuged at 12,000 rpm for 10 min, the aqueous phase was transferred to a new tube, 200 µL of isopropanol was added, and it was incubated for 3 h on ice. The sample was then centrifuged for 10 min at 12,000 rpm, and the supernatant was discarded. A 600 µL volume of ethanol (70%) was added, homogenized, and centrifuged. In the end, the supernatant was removed, and the sample was centrifuged again to dry the excess alcohol. The pellet was dried. Finally, it was resuspended in 25 µL of sterile MilliQ water. The concentration and purity of the extracted RNA were determined using the NanoDrop® Spectrophotometer ND-1000 (NanoDrop Technologies, Wilmington, DE, USA). […] RNA purity and integrity were confirmed using 0.8% (w/v) agarose gels under denaturing conditions.
The synthesis of cDNA was carried out with […] of purified RNA, and 1 U of […] was added (Thermo Thermo Fisher Scientific, Waltham, MA, USA). First-strand cDNA synthesis was carried out using 1 μg of DNase-treated RNA, combined with a 10 mM dNTP mix, oligo(dT)18 primer, and RevertAid reverse transcriptase (Thermo Scientific) in a final reaction volume of 20 μL. The reaction mixture was incubated at 42 °C for 60 min, followed by heat inactivation at 70 °C for 10 min. The synthesized cDNA was stored at −20 °C until further use. The level of purity and concentration of the cDNA were determined using the NanoDrop® Spectrophotometer ND-1000 (NanoDrop Technologies, Wilmington, DE, USA).
Specific oligonucleotides were designed to determine the expression levels of the gene’s phosphofructokinase, pyruvate kinase, glucose-6-phosphate dehydrogenase::6-phosphogluconolactonase, 6-phosphogluconate dehydrogenase, and transketolase. The design was based on gene sequences available in the National Center for Biotechnology Information (NCBI) database, adhering to the following criteria: an oligonucleotide length of 18–20 bp, a melting temperature (Tm) of 61 °C, a GC content of approximately 40%, and an amplicon size between 80 and 200 bp (Table 4). The oligonucleotides were synthesized by the Sequencing and Synthesis Unit of the Institute of Biotechnology, UNAM.
Additionally, previously reported primers that were used for the gene expression analysis of G. lamblia were also obtained (Table 4). These primers target genes encoding surface structural protein, giardin, actin, pyruvate:ferredoxin oxidoreductase, pyruvate phosphate dikinase, NADH oxidase, triose phosphate isomerase, glyceraldehyde-3-phosphate dehydrogenase, and Aldolase.
Amplification was performed using a StepOne™ Real-Time PCR System and the Fast SYBR® Green Master Mix kit (Applied Biosystems, Foster City, CA, USA) under the following conditions: an initial denaturation at 95 °C for 30 s, followed by 40 cycles of 95 °C for 3 s and 60 °C for 30 s. The melt curve analysis was conducted post-amplification by gradually increasing the temperature from 60 °C to 95 °C. […] Normalization was performed using the geometric mean of cycle threshold (Ct) values, and the relative expression levels of the target genes were calculated using the 2^−ΔΔCt method. Each reaction was performed in five replicates for all analyzed genes and strains. Results are presented as mean values ± standard deviation (SD).

[7] = ratio of IC50 values, ATCC strain

COc1cccc(C(=O)Nc2ncc([N+](=O)[O-])s2)c1 [FLP-6, 3-Methoxy-N-(5-nitro-1,3-thiazol-2-yl)benzamide]
Decrease of parasite viability ([1]; 25 µM): 100%
Inhibition of growth of G. lamblia parasite culture ([1]; concentration not given): more than 98%
Relative potency compared with MTZ [1, 7]: 12 times
Relative potency compared with NTZ [1, 7]: 15 times
Inhibition of the G6PD::6PGL enzyme (in words) [2]: not inhibitors of the enzyme
Selectivity index (CC50/IC50) HT-29 (HT-29 cells; CC50 HT-29 / IC50 trophozoite ATCC strain 30957): 411
CC50 (HT-29 cells; read-out: CC50 HT-29, 48 h, XTT): 115 µM
CC50 at 48 h [3]: 115 µM
selectivity ratio at 48 h ([4]; Caco-2): 636
CC50 at 48 h ([4]; Caco-2, CC50 Caco-2, 48 h, XTT): 178 µM
CC50 (Caco-2 cells): 178 µM
Decrease of cell viability (Caco-2 and HT-29 cells): up to 30%
IC50 [5]: 0.54 µM
ACT (actin) gene expression, increase vs control [6]: 2.5 times
G6PD::6PGL gene expression vs control [6]: 35 fold change
GIA (giardin) gene expression, increase vs control [6]: 2.6 times
PFK gene expression vs control [6]: 2.3 fold change
TKT gene expression, decrease vs control [6]: 1.2 times
VSP gene expression, increase vs control [6]: 5.9 times
